Experimental data as given in US3993642A, “Penicillins” (Bayer Aktiengesellschaft, priority 1973, dated 1976).

Assays:
[1] = Solubility noted during working up; type: physicochemical
Source text: Yield 42% of sodium D(-) -α-[(3-oxo-4-methyl-pyrazolidin-1-yl)-carbonylamino]-benzylpenicillin.

Pseudomonas Walter = experiment: MIC, test tube series dilution test; conditions: 24 hours, 37°C, liquid medium
Pseudomonas F 41 = experiment: MIC, test tube series dilution test; type: cell-based; conditions: 24 hours, 37°C, liquid medium
Source text: |D(+) Dextrose (Merck) 10 g

Serratia sp. = experiment: Freedom from cloudiness in Muller-Hinton broth; type: cell-based; conditions: 100 μg/ml, 24 hours
Bacteroides sp. = experiment: Freedom from cloudiness in Muller-Hinton broth; type: cell-based; conditions: 100 μg/ml, 24 hours
E.coli C 165 = experiment: Freedom from cloudiness in Muller-Hinton broth; type: cell-based; conditions: 100 μg/ml, 24 hours
Proteus vulgaris 1017 = experiment: Freedom from cloudiness in Muller-Hinton broth; type: cell-based; conditions: 100 μg/ml, 24 hours
Shigella sp. = experiment: Freedom from cloudiness in Muller-Hinton broth; type: cell-based; conditions: 100 μg/ml, 24 hours
Procedure: (§1) The compounds of the invention are also active against other genera of bacteria. This is shown by the following experiment, which was carried out with the compound of Example 1.
(§2) The compound of Example 1 was diluted to 100 μg/ml with Muller-Hinton nutrient broth, with the addition of 0.1% glucose. The nutrient solution in each case contained 1 × 10^5 to 2 × 10^5 bacteria per milliliter. The test tubes containing this mixture was incubated for 24 hours in each case and the degree of cloudiness was subsequently determined.

Salmonella sp. = experiment: Freedom from cloudiness in Muller-Hinton broth; type: cell-based; conditions: 100 μg/ml, 24 hours
Procedure: as §1, §2

[2] = tested on: Pasteurella psuedotuberculosis; experiment: Freedom from cloudiness in Muller-Hinton broth; type: cell-based; conditions: 100 μg/ml, 24 hours
Procedure: as §1, §2

[3] = tested on: Diplococcus pneumoniae sp.; experiment: Freedom from cloudiness in Muller-Hinton broth; type: cell-based; conditions: 100 μg/ml, 24 hours
Lactobacillus sp. = experiment: Freedom from cloudiness in Muller-Hinton broth; type: cell-based; conditions: 100 μg/ml, 24 hours
Klebsiella pneum. = experiment: MIC, test-tube dilution method
E.coli B = experiment: MIC, test-tube dilution method; type: cell-based
Proteus morg. = experiment: MIC, test-tube dilution method
E.coli 14 = experiment: Freedom from cloudiness in Muller-Hinton broth; type: cell-based; conditions: 100 μg/ml, 24 hours
Clostridium tetani = type: cell-based; conditions: 100 μg/ml, 24 hours
[4] = tested on: Proteus, indole-negative, sp.; experiment: Freedom from cloudiness in Muller-Hinton broth; type: cell-based; conditions: 100 μg/ml, 24 hours
[5] = tested on: Corynebacterium pyogenes M; experiment: Freedom from cloudiness in Muller-Hinton broth; type: cell-based; conditions: 100 μg/ml, 24 hours
[6] = tested on: Staphylococcus aureus 133; experiment: Freedom from cloudiness in Muller-Hinton broth; type: cell-based; conditions: 100 μg/ml, 24 hours
Haemophilus influenzae = experiment: Freedom from cloudiness in Muller-Hinton broth; type: cell-based; conditions: 100 μg/ml, 24 hours
Enterococcus ATCC 9790 = experiment: MIC, test-tube dilution method
Staph.aureus 133 = experiment: MIC, test-tube dilution method
[7] = tested on: Pseudomonas aeruginosa F 41; experiment: Animal experiments with white mice infected intraperitoneally; type: in vivo, white mice of strain CF1; conditions: subcutaneously, 4 × (per administration; 30 minutes, 2, 4 and 6 hours after infection)
Procedure: (§3) The white mice of strain CF1 were infected intraperitoneally with the species of bacteria indicated in each case. |Animal experiments with white mice: |Determination of the ED50 after 24 hours. | Dose in units of the | penicillin compound of | Example 1 per kg, given |Germ subcutaneously |Therapy: | 4 administrations: | 30 minutes, 2 hours, 4 hours | and 6 hours after infection The ED50 is a dose at which 50% of the infected animals still survive after 24 hours.

Pseudomonas aeruginosa W = experiment: as above; type: in vivo, white mice of strain CF1; conditions: subcutaneously, 4 × (per administration; 30 minutes, 2, 4 and 6 hours after infection)
Procedure: as §3

Enterobacter sp. = experiment: Freedom from cloudiness in Muller-Hinton broth; type: cell-based; conditions: 100 μg/ml, 24 hours
Aeromonas hydrophila sp. = experiment: Freedom from cloudiness in Muller-Hinton broth; type: cell-based; conditions: 100 μg/ml, 24 hours
E.coli 26/6 = experiment: MIC, test-tube dilution method
Proteus vulg. = experiment: MIC, test-tube dilution method
Enterococcus sp. = experiment: Freedom from cloudiness in Muller-Hinton broth; type: cell-based; conditions: 100 μg/ml, 24 hours
Clostridium botulinium = type: cell-based; conditions: 100 μg/ml, 24 hours
[8] = tested on: Pseudomonas aeruginosa sp.; experiment: Freedom from cloudiness in Muller-Hinton broth; type: cell-based; conditions: 100 μg/ml, 24 hours
[9] = tested on: Bordetella bronchiseptica; experiment: Freedom from cloudiness in Muller-Hinton broth; type: cell-based; conditions: 100 μg/ml, 24 hours
[10] = tested on: Proteus, indole-positive, sp.; experiment: Freedom from cloudiness in Muller-Hinton broth; type: cell-based; conditions: 100 μg/ml, 24 hours
Klebsiella 63 = experiment: Freedom from cloudiness in Muller-Hinton broth; type: cell-based; conditions: 100 μg/ml, 24 hours
Borrelia sp. = experiment: Freedom from cloudiness in Muller-Hinton broth; type: cell-based; conditions: 100 μg/ml, 24 hours
Streptococcus pyogenes W = experiment: Freedom from cloudiness in Muller-Hinton broth; type: cell-based; conditions: 100 μg/ml, 24 hours
Staphyloccus aureus = experiment: Animal experiments with white mice infected intraperitoneally; type: in vivo, white mice of strain CF1; conditions: subcutaneously, 1 × (1 administration, 30 minutes after infection)
Procedure: as §3, with “1 administration:” for “4 administrations:”, “minutes” for “minutes, 2 hours, 4 hours | and 6 hours”

E. coli C 165 = experiment: as above; type: in vivo, white mice of strain CF1; conditions: subcutaneously, 1 × (1 administration, 30 minutes after infection)
Procedure: as §3, with “1 administration:” for “4 administrations:”, “minutes” for “minutes, 2 hours, 4 hours | and 6 hours”

[11] = tested on: Corynebacterium diphteriae gravis; experiment: Freedom from cloudiness in Muller-Hinton broth; type: cell-based; conditions: 100 μg/ml, 24 hours
[12] = tested on: Neisseria catarrhalis sp.; experiment: Freedom from cloudiness in Muller-Hinton broth; type: cell-based; conditions: 100 μg/ml, 24 hours
Brucella sp. = type: cell-based; conditions: 100 μg/ml, 24 hours
Klebsiella K 10 = experiment: Freedom from cloudiness in Muller-Hinton broth; type: cell-based; conditions: 100 μg/ml, 24 hours

## CC1CN(C(=O)N[C@@H](C(=O)N[C@@H]2C(=O)N3[C@@H]2SC(C)(C)[C@@H]3C(=O)O)c2ccccc2)NC1=O (single isomer, unassigned) [free penicillic acid, D(-)-α-[(3-oxo-4-methyl-pyrazolidin-1-yl)-carbonylamino]-benzylpenicillin]
[1]; ethyl acetate
  solubility in ethyl acetate: sparingly soluble
[1]; water
  solubility in water: sparingly soluble

## Cc1cn(C(=O)N[C@@H](C(=O)N[C@@H]2C(=O)N3[C@@H]2SC(C)(C)[C@@H]3C(=O)O)C2=CCC=CC2)[nH]c1=O [Example 9, Sodium D(-)-α-[(4-methyl-5-oxo-3-pyrazolin-2-yl)-carbonylamino]-α-(cyclohexa-1,4-dien-1-yl)-methylpenicillin]
Pseudomonas Walter
  MIC: 16 - 32 μ/ml
Pseudomonas F 41
  MIC: 8 - 16 μ/ml

## CC1(C)S[C@@H]2[C@H](NC(=O)[C@H](NC(=O)N3CCC(=O)N3)c3ccccc3)C(=O)N2[C@H]1C(=O)O [Example 10 C, Sodium D(-)-α-[(3-oxo-pyrazolidin-1-yl)-carbonylamino]-benzylpenicillin]
Pseudomonas Walter
  MIC: 8 - 16 μ/ml

## CC1CN(C(=O)N[C@@H](C(=O)N[C@@H]2C(=O)N3[C@@H]2SC(C)(C)[C@@H]3C(=O)O)c2ccccc2)NC1=O (single isomer, unassigned) [Example 11 C, sodium D(-) -α-[(3-oxo-4-methyl-pyrazolidin-1-yl)-carbonylamino]-benzylpenicillin]
Pseudomonas Walter
  MIC: 16 - 64 μ/ml

## CC1(C)S[C@@H]2[C@H](NC(=O)[C@H](NC(=O)N3NC(=O)CC3c3ccccc3)c3ccccc3)C(=O)N2[C@H]1C(=O)O (single isomer, unassigned) [Example 14, sodium D(-)-α-[(3-oxo-5-phenyl-pyrazolidin-1-yl)-carbonylamino]-benzylpenicillin]
Pseudomonas Walter
  MIC: 4 - 16 μ/ml

## CC1(C)S[C@@H]2[C@H](NC(=O)[C@H](N)c3ccccc3)C(=O)N2[C@H]1C(=O)O [Ampicillin, α-aminobenzylpenicillin, reference compound]
Pseudomonas Walter
  MIC: > 400 μ/ml
Pseudomonas F 41
  MIC: > 400 μ/ml

## CC1(C)S[C@@H]2[C@H](NC(=O)C(C(=O)O)c3ccccc3)C(=O)N2[C@H]1C(=O)O (stereo partly drawn) [Carbenicillin, reference compound]
Pseudomonas Walter
  MIC: 200 μ/ml
Pseudomonas F 41
  MIC: > 200 μ/ml

## Cc1cn(C(=O)N[C@@H](C(=O)N[C@@H]2C(=O)N3[C@@H]2SC(C)(C)[C@@H]3C(=O)O)c2ccc(O)cc2)[nH]c1=O [Example 8, Sodium D(-)-α-[(4-methyl-5-oxo-3-pyrazolin-2-yl)-carbonylamino]-p-hydroxybenzylpenicillin]
Pseudomonas Walter
  MIC: 8 μ/ml
Pseudomonas F 41
  MIC: 8 - 16 μ/ml

## Cc1cn(C(=O)N[C@@H](C(=O)N[C@@H]2C(=O)N3[C@@H]2SC(C)(C)[C@@H]3C(=O)O)c2ccccc2)[nH]c1=O [Example 1 B, sodium D(-)-α-[(4-methyl-5-oxo-3-pyrazolin-2-yl)-carbonylamino]-benzylpenicillin]
Serratia sp.
  Freedom from cloudiness: free of cloudiness
Bacteroides sp.
  Freedom from cloudiness: free of cloudiness
E.coli C 165
  Freedom from cloudiness: free of cloudiness
Proteus vulgaris 1017
  Freedom from cloudiness: free of cloudiness
Shigella sp.
  Freedom from cloudiness: free of cloudiness
Salmonella sp.
  Freedom from cloudiness: free of cloudiness
[2]
  Freedom from cloudiness: free of cloudiness
[3]
  Freedom from cloudiness: free of cloudiness
Lactobacillus sp.
  Freedom from cloudiness: free of cloudiness
Klebsiella pneum.
  MIC: 128 U/ml
E.coli B
  MIC: 32 U/ml
Proteus morg.
  MIC: 128 U/ml
E.coli 14
  Freedom from cloudiness: free of cloudiness
Clostridium tetani
  Freedom from cloudiness: free of cloudiness
Pseudomonas Walter
  MIC: 8 μ/ml
[4]
  Freedom from cloudiness: free of cloudiness
[5]
  Freedom from cloudiness: free of cloudiness
[6]
  Freedom from cloudiness: free of cloudiness
Haemophilus influenzae
  Freedom from cloudiness: free of cloudiness
Enterococcus ATCC 9790
  MIC: 32 U/ml
Staph.aureus 133
  MIC: 0.5 U/ml
[7]
  ED50 after 24 hours: 100,000 units per kg
Pseudomonas aeruginosa W
  ED50 after 24 hours: 75,000 units per kg
Enterobacter sp.
  Freedom from cloudiness: free of cloudiness
Aeromonas hydrophila sp.
  Freedom from cloudiness: free of cloudiness
E.coli 26/6
  MIC: 1 U/ml
Proteus vulg.
  MIC: 128 U/ml
Pseudomonas F 41
  MIC: 8 μ/ml
Enterococcus sp.
  Freedom from cloudiness: free of cloudiness
Clostridium botulinium
  Freedom from cloudiness: free of cloudiness
[8]
  Freedom from cloudiness: free of cloudiness
[9]
  Freedom from cloudiness: free of cloudiness
[10]
  Freedom from cloudiness: free of cloudiness
Klebsiella 63
  Freedom from cloudiness: free of cloudiness
Borrelia sp.
  Freedom from cloudiness: free of cloudiness
Streptococcus pyogenes W
  Freedom from cloudiness: free of cloudiness
Staphyloccus aureus
  ED50 after 24 hours: 40,000 units per kg
E. coli C 165
  ED50 after 24 hours: 200,000 units per kg
[11]
  Freedom from cloudiness: free of cloudiness
[12]
  Freedom from cloudiness: free of cloudiness
Brucella sp.
  Freedom from cloudiness: free of cloudiness
Klebsiella K 10
  Freedom from cloudiness: free of cloudiness

## CC1(C)S[C@@H]2[C@H](NC(=O)[C@H](NC(=O)n3cc(-c4ccccc4)c(=O)[nH]3)c3ccccc3)C(=O)N2[C@H]1C(=O)O [Example 2 C, sodium D(-)-α-[(4-phenyl-5-oxo-3-pyrazolin-2-yl)-carbonylamino]-penzylpenicillin]
Pseudomonas Walter
  MIC: 4 μ/ml
Pseudomonas F 41
  MIC: 4 μ/ml
